Data from patent US20050002991A1, “Prophylactic agent of hypertension containing a conjugated fatty acid as an effective ingredient and the use thereof” (RINORU OIL MILLS CO., LTD., priority 2003, published 2005).
Marks after values point to notes of the source that are not given here.

System: OLETF rats
Assay: Systolic blood pressure of OLETF rats fed CLA-supplemented diet (indirect tail cuff method)
Format: in vivo, rat
Conditions: male OLETF rats; for Systolic blood pressure compared with control group (in words): 0.5% in diet, up to 3 weeks, control = high linoleic safflower oil; for Blood pressure, initial value / Blood pressure, 1 Week / Blood pressure, 2 Weeks / Blood pressure, 3 Weeks: systolic; for Blood pressure, initial value: baseline before feeding the diet supplemented with 0.5% of the substance; for Blood pressure, 1 Week / Blood pressure, 2 Weeks / Blood pressure, 3 Weeks: diet supplemented with 0.5% of the substance; for Blood pressure, 1 Week: 1 week of feeding; for Blood pressure, 2 Weeks: 2 weeks of feeding; for Blood pressure, 3 Weeks: 3 weeks of feeding
From the text: Male OLETF rats (7 weeks old), an animal model of non-insulin dependent diabetes mellitus, were assigned to three groups that were fed ad libitum with a semisynthetic diet (AIN-76) supplemented with 0.5% high linoleic safflower oil (Rinoru Oil Mills Co., Ltd.; control group), or a semisynthetic diet supplemented with 0.5% 9cis,11trans-CLA, and a semisynthetic diet supplemented with 0.5% 10trans,12cis-CLA for three weeks. […]
It has been found from the above-described results that systolic blood pressure is lowered in rats fed with the 10trans, 12cis-CLA.

Compound	Systolic blood pressure compared with control group (in words)	Systolic blood pressure compared with control group (in words) (listed as 10trans,12cis-CLA)	Blood pressure, initial value [mmHg]	Blood pressure, 1 Week [mmHg]	Blood pressure, 2 Weeks	Blood pressure, 3 Weeks
CCCCC/C=C\C=C\CCCCCCCCC(=O)O [10trans, 12cis-CLA, 10trans,12cis-CLA]	lowered	significantly suppressed	106 ± 4	125 ± 6	128 ± 5^b mmHg	132 ± 3^b mmHg
CCCCCC/C=C/C=C\CCCCCCCC(=O)O [9cis, 11trans-CLA, 9cis,11trans-CLA]	–	–	103 ± 3	131 ± 3	148 ± 4^a mmHg	154 ± 4^a mmHg
conjugated linoleic acid [CLA]	tends to lower	–	–	–	–	–
